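Compound exposure: 48 hours, 5 concentrations, 96-well plates. Definition used: TGI = concentration required for complete inhibition of growth.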
Tests used:
Test in all cases: NCI tumour cell line growth inhibition, 48 h
SNB-19 CNS = system: SNB-19 CNS
IGROV1 ovarian = system: IGROV1 ovarian
SW-620 colon = system: SW-620 colon
SK-MEL-28 melanoma = system: SK-MEL-28 melanoma
NCI-H226 lung = system: NCI-H226 lung
TK-10 renal = system: TK-10 renal
MDA-N = system: MDA-N
786-0 renal = system: 786-0 renal
RXF 393 renal = system: RXF 393 renal
KM12 colon = system: KM12 colon
OVCAR-5 ovarian = system: OVCAR-5 ovarian
MALME-3M melanoma = system: MALME-3M melanoma
COLO 205 colon = system: COLO 205 colon
SK-MEL-5 melanoma = system: SK-MEL-5 melanoma
SF-268 CNS = system: SF-268 CNS
HCC-2998 colon = system: HCC-2998 colon
OVCAR-8 ovarian = system: OVCAR-8 ovarian
EKVX NSCLC = system: EKVX NSCLC
HOP-62 NSCLC = system: HOP-62 NSCLC
HCT-15 colon = system: HCT-15 colon
M14 melanoma = system: M14 melanoma
U251 CNS = system: U251 CNS
LOX IMVI melanoma = system: LOX IMVI melanoma
CCRF-CEM leukemia = system: CCRF-CEM leukemia
SF-539 CNS = system: SF-539 CNS
UO-31 renal = system: UO-31 renal
UACC-257 melanoma = system: UACC-257 melanoma
MCF7 breast = system: MCF7 breast
SR leukemia = system: SR leukemia
NCI-H522 lung = system: NCI-H522 lung
HT29 colon = system: HT29 colon
HL-60(TB) leukemia = system: HL-60(TB) leukemia
SN12C renal = system: SN12C renal
CAKI-1 renal = system: CAKI-1 renal
NCI/ADR-RES ovarian = system: NCI/ADR-RES ovarian
HCT-116 colon = system: HCT-116 colon
SF-295 CNS = system: SF-295 CNS
MDA-MB-231 breast = system: MDA-MB-231 breast
OVCAR-3 ovarian = system: OVCAR-3 ovarian
NCI-H23 lung = system: NCI-H23 lung
SNB-75 CNS = system: SNB-75 CNS
PC-3 prostate = system: PC-3 prostate
MDA-MB-435 = system: MDA-MB-435
ACHN renal = system: ACHN renal
HS 578T breast = system: HS 578T breast
MOLT-4 leukemia = system: MOLT-4 leukemia
DU-145 prostate = system: DU-145 prostate
NCI-H460 lung = system: NCI-H460 lung
A549 NSCLC = system: A549 NSCLC
K-562 leukemia = system: K-562 leukemia
RPMI-8226 leukemia = system: RPMI-8226 leukemia
OVCAR-4 ovarian = system: OVCAR-4 ovarian
HOP-92 NSCLC = system: HOP-92 NSCLC
A498 renal = system: A498 renal
SK-OV-3 ovarian = system: SK-OV-3 ovarian
UACC-62 melanoma = system: UACC-62 melanoma
SK-MEL-2 melanoma = system: SK-MEL-2 melanoma

O=S(CCc1ccccc1)Nc1ccccc1 (centres undefined)
TGI (SNB-19 CNS): > 100 µM
TGI (IGROV1 ovarian): > 100 µM
TGI (SW-620 colon): > 100 µM
TGI (SK-MEL-28 melanoma): > 100 µM
TGI (NCI-H226 lung): > 100 µM
TGI (TK-10 renal): > 100 µM
TGI (MDA-N): > 100 µM
TGI (786-0 renal): > 100 µM
TGI (RXF 393 renal): > 100 µM
TGI (KM12 colon): > 100 µM
TGI (OVCAR-5 ovarian): > 100 µM
TGI (MALME-3M melanoma): > 100 µM
TGI (COLO 205 colon): > 100 µM
TGI (SK-MEL-5 melanoma): > 100 µM
TGI (SF-268 CNS): > 100 µM
TGI (HCC-2998 colon): > 100 µM
TGI (OVCAR-8 ovarian): > 100 µM
TGI (EKVX NSCLC): > 100 µM
TGI (HOP-62 NSCLC): > 100 µM
TGI (HCT-15 colon): > 100 µM
TGI (M14 melanoma): > 100 µM
TGI (U251 CNS): > 100 µM
TGI (LOX IMVI melanoma): > 100 µM
TGI (CCRF-CEM leukemia): > 100 µM
TGI (SF-539 CNS): > 100 µM
TGI (UO-31 renal): > 100 µM
TGI (UACC-257 melanoma): > 100 µM
TGI (MCF7 breast): > 100 µM
TGI (SR leukemia): > 100 µM
TGI (NCI-H522 lung): > 100 µM
TGI (HT29 colon): > 100 µM
TGI (HL-60(TB) leukemia): > 100 µM
TGI (SN12C renal): > 100 µM
TGI (CAKI-1 renal): > 100 µM
TGI (NCI/ADR-RES ovarian): > 100 µM
TGI (HCT-116 colon): > 100 µM
TGI (SF-295 CNS): > 100 µM
TGI (MDA-MB-231 breast): > 100 µM
TGI (OVCAR-3 ovarian): > 100 µM
TGI (NCI-H23 lung): > 100 µM
TGI (SNB-75 CNS): > 100 µM
TGI (PC-3 prostate): > 100 µM
TGI (MDA-MB-435): > 100 µM
TGI (ACHN renal): > 100 µM
TGI (HS 578T breast): > 100 µM
TGI (MOLT-4 leukemia): > 100 µM
TGI (DU-145 prostate): > 100 µM
TGI (NCI-H460 lung): > 100 µM
TGI (A549 NSCLC): > 100 µM
TGI (K-562 leukemia): > 100 µM
TGI (RPMI-8226 leukemia): > 100 µM

O=C1OC(c2ccc(O)c(F)c2)(c2ccc(O)c(F)c2)c2cccc3cccc1c23
TGI (SNB-19 CNS): > 25 µM
TGI (IGROV1 ovarian): > 25 µM
TGI (SW-620 colon): > 25 µM
TGI (SK-MEL-28 melanoma): > 25 µM
TGI (NCI-H226 lung): > 25 µM
TGI (TK-10 renal): > 25 µM
TGI (MDA-N): > 25 µM
TGI (RXF 393 renal): > 25 µM
TGI (KM12 colon): > 25 µM
TGI (OVCAR-5 ovarian): > 25 µM
TGI (MALME-3M melanoma): > 25 µM
TGI (COLO 205 colon): > 25 µM
TGI (SK-MEL-5 melanoma): > 25 µM
TGI (SF-268 CNS): > 25 µM
TGI (OVCAR-8 ovarian): > 25 µM
TGI (EKVX NSCLC): 19.4 µM
TGI (HOP-62 NSCLC): > 25 µM
TGI (HCT-15 colon): > 25 µM
TGI (M14 melanoma): > 25 µM
TGI (OVCAR-4 ovarian): 0.193 µM
TGI (HOP-92 NSCLC): > 25 µM
TGI (U251 CNS): > 25 µM
TGI (LOX IMVI melanoma): > 25 µM
TGI (CCRF-CEM leukemia): > 25 µM
TGI (SF-539 CNS): > 25 µM
TGI (UO-31 renal): > 25 µM
TGI (UACC-257 melanoma): > 25 µM
TGI (MCF7 breast): > 25 µM
TGI (SR leukemia): > 25 µM
TGI (HT29 colon): > 25 µM
TGI (HL-60(TB) leukemia): 18.9 µM
TGI (A498 renal): > 25 µM
TGI (SN12C renal): > 25 µM
TGI (CAKI-1 renal): 10.1 µM
TGI (NCI/ADR-RES ovarian): > 25 µM
TGI (HCT-116 colon): > 25 µM
TGI (SF-295 CNS): > 25 µM
TGI (MDA-MB-231 breast): > 25 µM
TGI (OVCAR-3 ovarian): > 25 µM
TGI (NCI-H23 lung): > 25 µM
TGI (PC-3 prostate): > 25 µM
TGI (MDA-MB-435): > 25 µM
TGI (SK-OV-3 ovarian): > 25 µM
TGI (UACC-62 melanoma): > 25 µM
TGI (ACHN renal): > 25 µM
TGI (HS 578T breast): > 25 µM
TGI (SK-MEL-2 melanoma): > 25 µM
TGI (MOLT-4 leukemia): > 25 µM
TGI (DU-145 prostate): > 25 µM
TGI (NCI-H460 lung): > 25 µM
TGI (A549 NSCLC): > 25 µM
TGI (K-562 leukemia): > 25 µM
TGI (RPMI-8226 leukemia): > 25 µM

Reference: PubChem BioAssay (NCI)
